≈ marks a conversion by molar mass, not a printed value. Some results are limits rather than exact numbers.

For this data set the following is noted: buffer; pH 7.4; 200.0 µM.
As to `O=C(COC(=O)C1=COCCO1)Nc1ccccc1OC(F)F`, the kinetic solubility is more than 49.4 µg/mL.

Consider `O=C(NCCN1CCOCC1)c1ccc(Cl)c(Cl)c1`, for which the kinetic solubility was determined as 43.5 µg/mL (≈ 143 µM).

For `CC(C)(C)NC(=O)NC(=O)COC(=O)CNC(=O)C1CCCCC1`, the kinetic solubility worked out at 40.9 µg/mL (≈ 120 µM).

In turn, `Cn1c(=O)c2ccccc2n(CC(=O)NC2CCCCC2)c1=O` showed a kinetic solubility of 8 µg/mL (≈ 25.4 µM).

In turn, `O=C1CN(C(=O)COC(=O)c2c(F)cccc2Cl)c2ccccc2N1` registered a kinetic solubility of 50 µg/mL (≈ 138 µM).

Take `COC(=O)C1=C(C)OC(N)=C(C#N)C12C(=O)Nc1ccccc12` (stereo unspecified): the solubility (kinetic) was more than 46.7 µg/mL.

`O=c1[nH]cnc(O)c1C(c1ccc(F)cc1)c1c(O)nc[nH]c1=O` registered a kinetic solubility of more than 49.5 µg/mL.

In turn, `NS(=O)(=O)c1ccc(CNC(=O)/C=C/c2cccc([N+](=O)[O-])c2)cc1` had a kinetic solubility of 14.2 µg/mL (≈ 39.3 µM).

`COc1ccccc1N1C(=O)C2C3C=CC(CC3)C2C1=O` (stereo unspecified) showed a solubility (kinetic) of 30.7 µg/mL (≈ 108 µM).

With `COc1ccc(Cc2nc3ccccc3n2C)cc1.Cl`, the solubility (kinetic) was determined as 42.3 µg/mL.

The compound `Cc1cc(C(=O)COC(=O)C23CC4CC(CC(O)(C4)C2)C3)c(C)n1C` registered a solubility (kinetic) of more than 51.8 µg/mL.

The compound `Cc1ccc(SCc2cn3c(C)cc(C)nc3n2)cc1` came in with a solubility (kinetic) of more than 42.5 µg/mL.

The compound `O=S(=O)(c1cc(Br)c(Cl)s1)N1CCCC1` had a kinetic solubility of 1 µg/mL (≈ 3.02 µM).

`O=c1c2ccccc2ncn1CCCCOc1ccccc1F` gave a kinetic solubility of 37.3 µg/mL (≈ 119 µM).

Consider `NC(=O)CSc1nc2ccccc2c(=O)n1-c1ccccc1`, for which the solubility (kinetic) is more than 46.7 µg/mL.

On to `COc1cccc(NC(=O)CN2C(=O)NC(C)(CC(C)C)C2=O)c1` (stereo unspecified), for which the kinetic solubility is more than 50 µg/mL.

Compound `Cc1cc(=O)oc2cc(OCC(O)Cn3ccnc3)ccc12` (stereo unspecified) returned a kinetic solubility of more than 45 µg/mL.

For `CC(C)(C)C(=O)C1=C(O)C(=O)N(Cc2ccccc2)C1c1ccccc1Cl` (stereo unspecified), the solubility (kinetic) was more than 57.6 µg/mL.

As for `CCc1noc(C)c1C(=O)Nc1nc2c(C)cc(C)cc2s1`, the kinetic solubility came to 3.2 µg/mL (≈ 10.1 µM).

As for `CC(OC(=O)c1ccco1)C(=O)Nc1nc(-c2ccccc2)cs1` (stereo unspecified), the kinetic solubility amounted to 4.5 µg/mL (≈ 13.1 µM).

`O=c1[nH]c2ccccc2n2c(=S)[nH]nc12` returned a solubility (kinetic) of more than 32.7 µg/mL.

`CSc1ncccc1C(=O)OCc1ccccc1Cl`: the kinetic solubility was less than 0.6 µg/mL.

`O=C(Nc1ccc(S(=O)(=O)Nc2ccccc2)cc1)C1CC1` returned a solubility (kinetic) of 12.6 µg/mL (≈ 39.8 µM).

Turning to `O=C(CSc1ccc([N+](=O)[O-])cc1)NCC1CCCCC1`, the kinetic solubility was 8.2 µg/mL (≈ 26.6 µM).

Regarding `O=C(Nc1cccnc1)c1cc([N+](=O)[O-])ccc1Cl`, the kinetic solubility is more than 41.7 µg/mL.

Compound `N#Cc1ccccc1OCC(=O)Nc1ccccc1C(=O)NC1CC1` showed a solubility (kinetic) of 48.3 µg/mL (≈ 144 µM).

The compound `O=C(O)/C=C/C(=O)Nc1ccc2c(c1)C(=O)c1ccccc1C2=O` returned a kinetic solubility of more than 48.2 µg/mL.

On to `Cc1cc(S(=O)(=O)Nc2nc(CN3CCOCC3)nc3sc4c(c23)CCC4)ccc1F`, for which the kinetic solubility was determined as 67.4 µg/mL (≈ 146 µM).

In turn, `O=C(NCC1CCCO1)c1cc2cc(F)ccc2[nH]1` (stereo unspecified) had a solubility (kinetic) of 36.8 µg/mL (≈ 140 µM).

`Cc1ccc(NC(=O)COC(=O)c2cccnc2)c(C)c1`: the kinetic solubility is more than 42.6 µg/mL.

In turn, `S=C(NCc1ccncc1)Nc1ccc(Br)cc1Cl` displayed a kinetic solubility of 40.9 µg/mL (≈ 115 µM).

Turning to `O=C(O)C1CCCN1C(=O)NC1CCCCC1` (stereo unspecified), the solubility (kinetic) came out at 30.4 µg/mL (≈ 127 µM).

Consider `CC1=C(C)C(C)=C(C#N)C(=C(C#N)C#N)N1`, for which the solubility (kinetic) was more than 31.5 µg/mL.

Take `CCCCN(C(=O)C1CCCC1)c1c(N)n(Cc2ccccc2)c(=O)[nH]c1=O`: the kinetic solubility was found to be 3.6 µg/mL (≈ 9.36 µM).

With `Cc1cccc(CN2CCN(c3ccc(Cl)cc3)CC2)c1`, the solubility (kinetic) stood at 2 µg/mL (≈ 6.65 µM).

In turn, `Cc1cccc(C(=O)O/N=C(/c2ccccc2)c2ccncc2)c1` displayed a kinetic solubility of less than 0.3 µg/mL.

Turning to `CC(=O)NC(c1ccc(C)cc1)c1cc(Cl)c2cccnc2c1O` (stereo unspecified), the kinetic solubility is less than 0.4 µg/mL.

As for `CCCSc1ccc2nc(NC(=O)OC)[nH]c2c1`, the kinetic solubility amounted to 1.4 µg/mL (≈ 5.28 µM).

In the case of `Cc1onc(-c2ccccc2Cl)c1C(=O)N(C)Cc1ccccc1`, the kinetic solubility was more than 51.1 µg/mL.

`COc1ccc(CCC(=O)N2CCN(c3ccc(OC)cc3)CC2)cc1` registered a solubility (kinetic) of 41 µg/mL (≈ 116 µM).

On to `O=C(O)C1C2CCC(O2)C1C(=O)Nc1ccc(F)c(F)c1` (stereo unspecified), for which the kinetic solubility was determined as 40.5 µg/mL (≈ 136 µM).

As for `CC(=O)c1ccc(N2CCN(C(=O)Nc3ccc(C)cc3)CC2)cc1`, the kinetic solubility came out at 1.4 µg/mL (≈ 4.15 µM).

`CCOC(=O)c1c2c3c(cccc3[nH]c1=O)C(=O)c1ccccc1-2` displayed a solubility (kinetic) of less than 0.7 µg/mL.

The compound `Cc1ccc(S(=O)(=O)N2CCN(C)CC2)cc1` gave a solubility (kinetic) of more than 38.2 µg/mL.

`CC(C)COC(=O)c1ccc(N2C(=O)c3ccccc3C2=O)cc1` showed a kinetic solubility of 2.1 µg/mL (≈ 6.49 µM).

As for `COc1ccc(C(=O)N2CCN(c3ccc(C(C)=O)cc3)CC2)cc1S(=O)(=O)N1CCCC1`, the solubility (kinetic) is more than 70.7 µg/mL.

With `O=C(C[n+]1ccccc1)Nc1ccccc1C(F)(F)F.[Cl-]`, the solubility (kinetic) was more than 47.5 µg/mL.

The compound `COc1cc2c(cc1OC)CN(CC(=O)NC(=O)NC(C)(C)C)CC2` gave a solubility (kinetic) of 45.9 µg/mL (≈ 131 µM).

Compound `CC(=O)c1c(C)[nH]c(C(=O)Nc2ccccc2Cl)c1C` registered a solubility (kinetic) of 2.7 µg/mL (≈ 9.29 µM).

`O=C(Nc1ccccc1)N1CCN(CCc2ccccc2)CC1` showed a solubility (kinetic) of 41.6 µg/mL (≈ 134 µM).

Consider `Cc1ccc2cccc(NS(=O)(=O)c3ccccc3)c2n1`, for which the kinetic solubility was less than 0.3 µg/mL.

One may read the kinetic solubility as solubility judged after dilution from a stock solution rather than from solid.
